Results on 38 compounds are retold here after ChEMBL document CHEMBL1201862, “PubChem BioAssay data set” (2004).

Assay [1] is described as follows: Luminescence Cell-Based Dose Retest to Confirm Inhibitors of Cancer Stem Cells. [Related pubchem assays (depositor defined):AID2717, AID2721]. It is filed as functional. The following applies: Homo sapiens.
In assay [2] the target is Cytochrome P450 2D6 (Homo sapiens, UniProt P10635).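 Further: CYP2D6 member of a cytochrome P450 panel assay.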
For assay [3], the target named is T1, Corticotropin-releasing factor receptor 2/Corticotropin-releasing factor-binding protein (Homo sapiens, UniProt P24387+Q13324).
T1 sequence (Q13324 whole entry): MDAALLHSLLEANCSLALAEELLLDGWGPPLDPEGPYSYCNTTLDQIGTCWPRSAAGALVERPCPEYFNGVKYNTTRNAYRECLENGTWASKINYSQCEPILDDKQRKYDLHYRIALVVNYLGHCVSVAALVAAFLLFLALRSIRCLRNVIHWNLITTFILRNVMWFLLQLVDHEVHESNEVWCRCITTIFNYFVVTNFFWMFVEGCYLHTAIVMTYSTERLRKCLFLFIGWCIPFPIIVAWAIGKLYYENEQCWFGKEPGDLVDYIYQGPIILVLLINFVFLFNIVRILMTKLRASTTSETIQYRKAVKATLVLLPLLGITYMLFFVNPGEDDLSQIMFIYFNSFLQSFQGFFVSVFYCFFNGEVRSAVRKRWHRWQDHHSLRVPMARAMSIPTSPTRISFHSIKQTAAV
T1 sequence (P24387 whole entry): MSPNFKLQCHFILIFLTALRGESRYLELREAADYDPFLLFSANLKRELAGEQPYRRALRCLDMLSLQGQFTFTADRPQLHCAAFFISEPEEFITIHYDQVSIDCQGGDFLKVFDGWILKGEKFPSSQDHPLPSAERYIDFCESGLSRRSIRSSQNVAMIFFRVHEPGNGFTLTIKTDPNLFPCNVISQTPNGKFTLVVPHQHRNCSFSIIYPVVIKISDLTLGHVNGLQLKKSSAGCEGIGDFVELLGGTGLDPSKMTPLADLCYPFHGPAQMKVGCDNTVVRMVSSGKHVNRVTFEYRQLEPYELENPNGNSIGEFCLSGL
Put plainly: Dose Response confirmation of uHTS hits for small molecule antagonists of the CRF-binding protein and CRF-R2 receptor complex. The assay is classed as functional. The following applies: read-out: IC50_Mean.

Assay [4] deals with T1, Corticotropin-releasing factor receptor 2/Corticotropin-releasing factor-binding protein. The experiment in a line: activators of CRF receptor 2 with binding protein – uHTS hits, confirmation (AID 602473). The assay is classed as functional. To be noted: read-out: EC50_Mean.
The target in assay [5] is T2, Polyadenylate-binding protein 1 (Homo sapiens, UniProt P11940). The experiment in a line: MLLE binding blockers, Cy5 peptide tracer – biochemical, fluorescence polarization, Cy5-PAM2 peptide, secondary, miRNA deadenylation inhibitor project, dose response (AID 602260). The assay is classed as functional. The following applies: read-out: IC50_Mean.
In assay [6] the target is T2, Polyadenylate-binding protein 1. The experiment in a line: MLLE domain peptide-binding blockers, IC50 – biochemical, fluorescence polarization, FITC-PAM2 peptide, dose response (AID 602259). The assay is classed as functional. The following applies: read-out: IC50_Mean.
A short description of assay [7]: luciferase reporter signal suppression in cells – H4 neuroglioma cells, luminescence, dose response (AID 1990). It is filed as functional, cell-based.
The nature of assay [8]: Luminescence Cell-Based Dose Response HTS to Identify Inhibitors of 5'UTR Stem-Loop Driven Prion Protein mRNA Translation in H4 Neuroglioblastoma Cells. [Related pubchem assays: 1827 (Project Summary), 1813 (Primary HTS)]. The assay is classed as functional.
The nature of assay [9]: alpha-synuclein stem-loop luciferase translation blockers – H4 neuroglioma cells, luminescence, confirmation (AID 1988). It is filed as functional, cell-based.
Assay [10] concerns the target Cytochrome P450 3A4 (Homo sapiens, UniProt P08684).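 Further: CYP3A4 tested as one member of a cytochrome P450 panel screen.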
For assay [11], the target named is Cytochrome P450 2C19 (Homo sapiens, UniProt P33261). The experiment in a line: Cytochrome panel assay with activity outcomes. Panel member name: p450-cyp2c19 Compounds with AC50 equal or less than 10 uM are considered active. The following applies: read-out: AC50. The assay is classed as functional.
The target of assay [12] is T3, Heat shock factor protein 1 (Mus musculus, UniProt P38532).
T3 sequence (P38532 whole entry): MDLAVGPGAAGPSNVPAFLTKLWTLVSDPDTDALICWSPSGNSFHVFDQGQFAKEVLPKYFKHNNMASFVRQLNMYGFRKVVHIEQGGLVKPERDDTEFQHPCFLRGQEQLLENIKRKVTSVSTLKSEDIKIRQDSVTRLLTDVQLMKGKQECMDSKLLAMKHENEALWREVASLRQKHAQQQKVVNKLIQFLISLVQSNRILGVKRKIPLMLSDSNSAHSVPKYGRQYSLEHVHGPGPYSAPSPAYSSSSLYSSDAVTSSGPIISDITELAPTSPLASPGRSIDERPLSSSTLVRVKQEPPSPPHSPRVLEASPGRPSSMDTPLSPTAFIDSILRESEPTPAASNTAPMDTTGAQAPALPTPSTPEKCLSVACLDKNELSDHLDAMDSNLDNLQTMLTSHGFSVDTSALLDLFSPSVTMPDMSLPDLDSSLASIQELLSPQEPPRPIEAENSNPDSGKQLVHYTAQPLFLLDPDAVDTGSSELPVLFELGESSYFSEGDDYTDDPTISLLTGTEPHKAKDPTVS
Put plainly: decrease of HSF1-responsive luciferase luminescence – cell-based, NIH3T3, dose retest, confirmation (AID 2382).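 Further: NIH3T3 fibroblasts with HSF1-driven luciferase reporter stressed by proteasome inhibitor MG132; luminescence from HSF1-driven luciferase expression after 8 hours of MG132 stress.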 The assay is classed as functional.

For assay [13], the target named is Cytochrome P450 2C9 (Homo sapiens, UniProt P11712).
The nature of assay [14]: Trypanosoma cruzi growth suppression in host cells – NIH3T3 host cells, beta-gal luminescence, confirmation (AID 2044).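 Further: intracellular parasites grown in NIH/3T3 mouse fibroblasts as host cells; luminescent beta-galactosidase reporter signal from transgenic T. cruzi replicating inside host cells; inhibitors lower the luminescence signal.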 It is filed as functional, cell-based.
A short description of assay [15]: NIH3T3 cell viability loss – ATP luminescence, mouse fibroblasts, counter-screen, dose response (AID 2010).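 Further: cells exposed to compound for about 90 hours before reading.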 It is filed as functional, cell-based. (In general: The purpose of a counterscreen is to sort out artefacts and off-target activity.)

Active and inactive are the calls of the source.

Sequence of Cytochrome P450 3A4 (P08684 whole entry): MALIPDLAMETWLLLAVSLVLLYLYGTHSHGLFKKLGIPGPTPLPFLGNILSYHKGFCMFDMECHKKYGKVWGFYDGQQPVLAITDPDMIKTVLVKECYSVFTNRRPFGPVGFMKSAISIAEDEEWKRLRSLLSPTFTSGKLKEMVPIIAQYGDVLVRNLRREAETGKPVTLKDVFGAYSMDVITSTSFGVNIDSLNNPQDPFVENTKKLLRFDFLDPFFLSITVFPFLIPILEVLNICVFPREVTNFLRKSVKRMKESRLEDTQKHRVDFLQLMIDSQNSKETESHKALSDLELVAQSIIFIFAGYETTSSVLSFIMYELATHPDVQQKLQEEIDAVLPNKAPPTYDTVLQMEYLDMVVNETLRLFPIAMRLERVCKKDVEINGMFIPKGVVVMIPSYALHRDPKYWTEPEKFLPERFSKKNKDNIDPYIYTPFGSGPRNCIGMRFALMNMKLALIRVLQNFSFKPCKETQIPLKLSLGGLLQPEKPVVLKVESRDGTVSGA
T2 sequence (P11940 whole entry, the tested form may be a part): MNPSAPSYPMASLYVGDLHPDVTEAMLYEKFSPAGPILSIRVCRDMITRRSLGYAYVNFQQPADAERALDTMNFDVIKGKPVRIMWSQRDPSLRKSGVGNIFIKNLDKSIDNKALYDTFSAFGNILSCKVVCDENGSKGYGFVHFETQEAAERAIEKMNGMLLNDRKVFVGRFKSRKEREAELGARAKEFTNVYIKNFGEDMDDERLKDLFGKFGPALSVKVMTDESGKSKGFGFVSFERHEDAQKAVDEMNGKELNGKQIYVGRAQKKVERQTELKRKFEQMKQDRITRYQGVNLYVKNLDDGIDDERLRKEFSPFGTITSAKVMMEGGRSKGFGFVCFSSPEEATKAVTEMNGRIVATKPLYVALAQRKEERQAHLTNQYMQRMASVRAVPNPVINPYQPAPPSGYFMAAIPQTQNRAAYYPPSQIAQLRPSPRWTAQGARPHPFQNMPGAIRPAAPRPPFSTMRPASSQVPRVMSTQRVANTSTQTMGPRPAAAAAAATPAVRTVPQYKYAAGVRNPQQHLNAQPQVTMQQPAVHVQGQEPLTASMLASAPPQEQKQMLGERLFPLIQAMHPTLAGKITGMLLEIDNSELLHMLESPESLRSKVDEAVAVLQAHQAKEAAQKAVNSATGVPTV
Sequence of Cytochrome P450 2D6 (P10635 whole entry): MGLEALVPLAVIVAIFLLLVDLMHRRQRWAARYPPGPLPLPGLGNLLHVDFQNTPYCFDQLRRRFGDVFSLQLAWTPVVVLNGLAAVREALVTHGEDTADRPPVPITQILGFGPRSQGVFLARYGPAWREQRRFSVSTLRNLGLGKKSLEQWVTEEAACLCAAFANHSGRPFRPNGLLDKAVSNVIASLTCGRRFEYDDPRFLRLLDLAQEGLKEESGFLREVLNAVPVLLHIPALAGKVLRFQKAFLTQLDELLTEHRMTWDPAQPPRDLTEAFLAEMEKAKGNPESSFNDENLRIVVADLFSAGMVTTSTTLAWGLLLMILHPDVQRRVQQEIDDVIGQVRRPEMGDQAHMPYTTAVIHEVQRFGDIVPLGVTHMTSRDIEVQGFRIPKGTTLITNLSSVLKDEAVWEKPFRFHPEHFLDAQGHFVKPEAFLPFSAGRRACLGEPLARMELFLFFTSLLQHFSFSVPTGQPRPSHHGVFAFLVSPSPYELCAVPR
Sequence of Cytochrome P450 2C9 (P11712 whole entry): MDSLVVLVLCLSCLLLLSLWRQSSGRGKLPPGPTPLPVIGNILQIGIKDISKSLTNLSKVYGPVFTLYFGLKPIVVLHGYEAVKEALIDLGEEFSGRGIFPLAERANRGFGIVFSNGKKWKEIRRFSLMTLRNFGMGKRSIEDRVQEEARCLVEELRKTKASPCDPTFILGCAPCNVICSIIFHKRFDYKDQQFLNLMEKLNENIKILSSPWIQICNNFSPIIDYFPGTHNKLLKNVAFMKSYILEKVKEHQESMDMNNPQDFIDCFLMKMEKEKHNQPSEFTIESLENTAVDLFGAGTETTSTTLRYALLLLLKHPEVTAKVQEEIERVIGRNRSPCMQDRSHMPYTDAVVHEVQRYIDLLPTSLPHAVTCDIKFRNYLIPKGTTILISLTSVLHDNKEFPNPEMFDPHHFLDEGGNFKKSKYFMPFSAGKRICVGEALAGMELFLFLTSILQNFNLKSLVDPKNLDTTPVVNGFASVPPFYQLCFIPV
Sequence of Cytochrome P450 2C19 (P33261 whole entry): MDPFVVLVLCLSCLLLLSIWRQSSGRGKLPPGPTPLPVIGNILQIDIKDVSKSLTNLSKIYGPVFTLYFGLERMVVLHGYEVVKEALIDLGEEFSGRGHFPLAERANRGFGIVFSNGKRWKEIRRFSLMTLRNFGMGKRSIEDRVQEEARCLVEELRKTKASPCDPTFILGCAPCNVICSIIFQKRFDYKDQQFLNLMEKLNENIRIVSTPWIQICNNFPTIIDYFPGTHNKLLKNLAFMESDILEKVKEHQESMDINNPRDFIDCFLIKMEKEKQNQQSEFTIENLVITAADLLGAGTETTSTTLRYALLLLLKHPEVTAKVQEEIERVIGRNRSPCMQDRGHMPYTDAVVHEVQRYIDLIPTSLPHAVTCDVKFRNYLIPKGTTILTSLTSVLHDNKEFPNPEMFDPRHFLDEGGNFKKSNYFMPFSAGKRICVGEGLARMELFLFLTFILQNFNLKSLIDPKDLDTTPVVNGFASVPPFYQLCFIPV

Regarding `Nc1ccc(CCN2CCN(c3cccc(C(F)(F)F)c3)CC2)cc1`, the AC50 in assay [1] is 1.35 µM (active); in [2], 12.6 µM (inconclusive).
With `CCOc1ccccc1NC(=O)C1CCCN1S(=O)(=O)c1ccccc1C(F)(F)F` (stereo unspecified), the IC50 in assay [3] was > 47.1 µM (inactive). Besides, the EC50 in assay [4] was > 53 µM (inactive).
As for `CCN1C(=O)/C(=C/c2ccc(OC)c(OC)c2)N=C1SCC(=O)NCc1ccco1`, the IC50 in assay [5] and in assay [6] was > 66 µM (inactive) throughout.
Regarding `COc1cccc(Nc2ncc(C#N)c(N)n2)c1`, the EC50 in [7] is 16.4 µM (active); in assay [8] it was 14.2 µM (active); in assay [9], 14.5 µM (active).
In the case of `C1CC2CN(c3nc4nonc4nc3N3CCSCC3)CCN2C1` (stereo unspecified), the IC50 in [5] and in [6] was > 66 µM (inactive) throughout.
Turning to `CCc1ccc(CNn2cnnc2SCC(=O)NC(C)(C)C)cc1`, the EC50 in assay [7], in assay [8] and in assay [9] was > 120 µM (not active) throughout.
Consider `CC(=O)N1CCC[C@@]2(CCN(Cc3ccccc3)C2)C1`, for which the AC50 is 15.8 µM (inconclusive) in assay [2] and 39.8 µM (inconclusive) in assay [10].
For `CC(C)(C)c1cc(C(=O)O)nn1-c1ccccc1`, the IC50 in assay [3] is > 47.1 µM (inactive). The EC50 in assay [4] was > 53 µM (inactive).
With `c1ccc2nc(C3=NCCN3)ccc2c1`, the AC50 in [2] was 20 µM (inconclusive).
In the case of `COc1ccc(OCCCC(=O)Nc2cccnc2)cc1`, in assay [3], the IC50 was > 47.1 µM (inactive). Further, in assay [4], the EC50 was > 53 µM (inactive).
For `O=C(COc1ncnc2sccc12)N1CCN(C(=O)c2ccco2)CC1`, the EC50 in [7], in assay [8] and in assay [9] was > 120 µM (not active) throughout.
In the case of `CS(=O)(=O)N1CCN(c2ccccc2NC(=O)c2ccc(Br)o2)CC1`, the AC50 in [11] was 39.8 µM (inconclusive); in assay [2], 22.4 µM (inconclusive).
On to `C/C(CCN1CCCc2nc(C)c(C)cc21)=N\O[C@@H](C)c1cn([C@H](CO)Cc2ccccc2)nn1`, for which the AC50 in assay [2] is 3.98 µM (inconclusive).
For `CN(C)c1ccc(-c2nc3n(n2)C(c2cccnc2)C2=C(O)CC(C)(C)CC2=N3)cc1` (stereo unspecified), in assay [12], the EC50 was > 195 µM (not active). In addition, the values for the AC50 in assay [2] and in [13] were 17.8 µM (inconclusive) and 28.2 µM (inconclusive), respectively.
As to `Cc1ccc(NC(=O)CSc2nc3ccccc3c(=O)n2CCCC(=O)NCCCN2CCOCC2)cc1`, the IC50 in assay [3] is > 47.1 µM (inactive). Further, in [4], the EC50 was > 53 µM (inactive).
Turning to `CCC(NN1CCCCC1)=C1C(=O)NC(=O)NC1=O`, the EC50 in assay [7] is 11.9 µM (active); in [8], > 120 µM (not active); in [9], 10.2 µM (active).
For `CC(C)NC(=O)N1CCCC2(CCN(C(=O)c3csnn3)CC2)C1`, the AC50 in assay [2] is 12.6 µM (inconclusive); in [10] it was 25.1 µM (inconclusive).
In the same order, the values of `O=C(CN1CCc2ccccc21)NC(=O)NCc1ccco1` are 14.1 µM (inconclusive) and 28.2 µM (inconclusive).
Turning to `O=c1c(-c2cccs2)nc2cnc(N3CCNCC3)nc2n1CCc1ccccc1`, the AC50 in assay [2] was 25.1 µM (inconclusive).
Still for that read-out and setting: in the case of `FC(F)(F)c1ccccc1-c1nc(NCc2cccs2)c2ccccc2n1` it was 25.1 µM (inconclusive).
`CCOC(=O)CSC1=N/C(=C\c2cc(OC)c(OC)c(OC)c2)C(=O)N1C`: the IC50 in [5] and in assay [6] was > 66 µM (inactive) throughout.
As to `c1ccc(Cc2nn3c(-c4ccncc4)nnc3s2)cc1`, the IC50 in assay [5] and in assay [6] was > 66 µM (inactive) throughout.
With `CC(=O)N(C(C)=O)c1ncnc2c1c(-c1ccc(Cl)cc1)nn2C(C)(C)C`, the EC50 is 13.1 µM (active) in assay [7]; 20.1 µM (active) in assay [8]; 25.1 µM (active) in [9]; 0.512 µM (active) in assay [14]; 4.21 µM (active) in assay [15].
Take `Cc1nn(Cc2ccccc2Cl)c(C)c1NC(=O)c1nc2ncccn2n1`: in [3], the IC50 is > 47.1 µM (inactive). Besides, in assay [4], the EC50 was > 53 µM (inactive).
On to `COCc1cc(O)n2nc(-c3ccccc3)cc2n1`, for which the IC50 in assay [3] was > 47.1 µM (inactive). The EC50 in [4] is > 53 µM (inactive).
The like results for `Cc1ccc(C(=O)COc2cc(O)c3c(=O)cc(-c4ccccc4)oc3c2)cc1` were, in that order, > 47.1 µM (inactive) and > 53 µM (inactive).
As to `CCOc1ccccc1N(C)C(=O)Cn1ncc2c3ccccc3nc-2c1O`, the IC50 in assay [3] is > 47.1 µM (inactive). For the same compound, the EC50 in assay [4] was > 53 µM (inactive).
Turning to `COCC(=O)N1CCC2(CCCN(c3ncccn3)C2)CC1`, the AC50 in [2] is 20 µM (inconclusive).
For `CCOC(=O)c1ccc(N2CN(CC)CN=C2S)cc1`, the EC50 in assay [7], in assay [8] and in [9] was > 120 µM (not active) each time.
With `CCOc1ccc(-n2c(SCC(=O)Nc3ccc(OC)cc3)nc3c(c2=O)SCC3)cc1`, the concentration at half-maximal activity (AC50) in assay [2] was 15.8 µM (inconclusive); in assay [10] it was 7.94 µM (inconclusive); in assay [13], 3.55 µM (inconclusive).
As to `CCOC(=O)c1[nH]c2ccccc2c1NC(=O)Nc1ccc(OC)cc1`, the IC50 in assay [3] is > 47.1 µM (inactive). In addition, the EC50 in assay [4] is > 53 µM (inactive).
For the compound `O=C(NCCN1CCN(Cc2ccccc2)CC1)C1c2ccccc2C(=O)N2CCc3ccccc3C12` (stereo unspecified), the AC50 was 39.8 µM (inconclusive) in assay [11] and 11.2 µM (inconclusive) in assay [2].
For `CC(C)C(NC(=O)c1ccco1)C(=O)NC1CCCCCC1` (stereo unspecified), the IC50 in [3] was > 47.1 µM (inactive). In addition, the EC50 in assay [4] is > 53 µM (inactive).
Take `C=C(C)c1cccc(C(C)(C)NC(=O)Nc2cc(C)ccc2OC)c1`: the half-maximal activity concentration (AC50) in [2] is 12.6 µM (inconclusive).
Consider `O=C(COC(=O)c1ccncc1)Nc1cc(Cl)ccc1Cl`, for which the IC50 in assay [3] is > 47.1 µM (inactive). In [4], the EC50 was > 53 µM (inactive).
As to `Cc1ccc(S(=O)(=O)Nc2cc(C)c(O)c(Sc3nnc(C)[nH]3)c2)cc1`, the IC50 in assay [5] and in assay [6] was > 66 µM (inactive) in each case.
In the case of `CC1=C(C(=O)OCc2ccccc2)C(c2ccc([N+](=O)[O-])cc2)NC(=O)N1CCCCCC(=O)O` (stereo unspecified), the values for the AC50 in assay [2] and in [10] were 20 µM (inconclusive) and 10 µM (inconclusive), respectively.
`Nc1ccc(C(=O)N/N=C/c2cn(Cc3ccc(F)cc3)c3ccccc23)cc1`: the figures for the EC50 in assay [7], in [8] and in assay [9] were 10.1 µM (active), 17.7 µM (active) and 7.7 µM (active), respectively.

The term AC50 denotes the concentration at which the activity in the assay is half-maximal.
